Laboratory results reported in US9751874B2, “Hydroxy containing FXR (NR1H4) modulating compounds” (Gilead Sciences, Inc., priority 2014, dated 2017).
pEC50: −log10 of the molar value.

Columns and labels:
[1] = biological target: T1, human FXR alpha ligand binding domain (Homo sapiens, UniProt Q96RI1); experiment: FRET activity assay (ligand mediated cofactor peptide interaction, LANCE); type: biochemical; conditions: GST-FXR-LBD / biotinylated SRC-1 peptide (676-700), read-out: F EC50
T1 construct: made in house; host or cells: E. coli BL21(DE3), vector pDEST15
T1 sequence (Q96RI1 187-472 isoform Q96RI1-2): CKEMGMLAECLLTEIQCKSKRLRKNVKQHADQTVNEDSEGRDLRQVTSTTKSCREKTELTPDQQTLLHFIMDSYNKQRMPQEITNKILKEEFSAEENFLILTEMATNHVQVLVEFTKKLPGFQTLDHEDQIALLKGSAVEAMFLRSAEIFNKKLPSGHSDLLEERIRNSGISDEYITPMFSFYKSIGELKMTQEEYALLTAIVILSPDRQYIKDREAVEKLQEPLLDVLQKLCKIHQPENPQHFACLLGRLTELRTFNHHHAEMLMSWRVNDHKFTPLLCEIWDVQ
Experimental: Determination of a ligand mediated cofactor peptide interaction to quantify ligand binding to the nuclear receptor FXR was performed as follows: Preparation of human FXR alpha ligand binding domain: The human FXRalpha LBD was expressed in E. coli strain BL21(DE3) as an N-terminally GST tagged fusion protein. The DNA encoding the FXR ligand binding domain was cloned into vector pDEST15 (Invitrogen). Expression was under control of an IPTG inducible T7 promoter. The amino acid boundaries of the ligand binding domain were amino acids 187-472 of Database entry NM_005123 (RefSeq). Expression and purification of the FXR-LBD: An overnight preculture of a transformed E. coli strain was diluted 1:20 in LB-Ampicillin medium and grown at 30° C. to an optical density of OD600=0.4-0.6. Gene expression was then induced by addition of 0.5 mM IPTG. Cells were incubated an additional 6 h at 30° C., 180 rpm. Cells were collected by centrifugation (7000×g, 7 min, rt). Per liter of original cell culture, cells were resuspended in 10 mL lysis buffer (50 mM Glucose, 50 mM Tris pH 7.9, 1 mM EDTA and 4 mg/mL lysozyme) and left on ice for 30 min. Cells were then subjected to sonication and cell debris removed via centrifugation (22000×g, 30 min, 4° C.). Per 10 mL of supernatant 0.5 mL prewashed Glutathione 4B sepharose slurry (Qiagen) was added and the suspension kept slowly rotating for 1 h at 4° C. Glutathione 4B sepharose beads were pelleted by centrifugation (2000×g, 15 sec, 4° C.) and washed twice in wash buffer (25 mM Tris, 50 mM KCl, 4 mM MgCl2 and 1M NaCl). The pellet was resuspended in 3 mL elution buffer per liter of original culture (elution buffer: 20 mM Tris, 60 mM KCl, 5 mM MgCl2 and 80 mM glutathione added immediately prior to use as powder). The suspension was left rotating for 15 min at 4° C., the beads pelleted and eluted again with half the volume of elution buffer than the first time. The eluates were pooled and dialysed overnight in 20 mM Hepes buffer (pH 7.5) containing 60 mM KCl, 5 mM MgCl2 as well as 1 mM dithiothreitol and 10% (v/v) glycerol. The protein was analysed by SDS-Page.
The method measures the ability of putative ligands to modulate the interaction between the purified bacterial expressed FXR ligand binding domain (LBD) and a synthetic biotinylated peptide based on residues 676-700 of SRC-1 (LCD2, 676-700). The sequence of the peptide used was B—[…]—COOH where the N-terminus was biotinylated (B). The ligand binding domain (LBD) of FXR was expressed as fusion protein with GST in BL-21 cells using the vector pDEST15. Cells were lysed by sonication, and the fusion proteins purified over glutathione sepharose (Pharmacia) according to the manufacturers instructions. For screening of compounds for their influence on the FXR-peptide interaction, the Perkin Elmer LANCE technology was applied. This method relies on the binding dependent energy transfer from a donor to an acceptor fluorophor attached to the binding partner of interest. For ease of handling and reduction of background from compound fluorescence LANCE technology makes use of generic fluorophore labels and time resolved detection Assays were done in a final volume of 25 μL in a 384 well plate, in a Tris-based buffer (20 mM Tris-HCl pH 7.5; 60 mM KCl, 5 mM MgCl2; 35 ng/μL BSA), containing 20-60 ng/well recombinantly expressed FXR-LBD fused to GST, 200-600 nM N-terminally biotinylated peptide, representing SRC1 aminoacids 676-700, 200 ng/well Streptavidin-xIAPC conjugate (Prozyme) and 6-10 ng/well Eu W1024-antiGST (Perkin Elmer). DMSO content of the samples was kept at 1%. After generation of the assay mix and diluting the potentially FXR modulating ligands, the assay was equilibrated for 1 h in the dark at rt in FIA-plates black 384 well (Greiner). The LANCE signal was detected by a Perkin Elmer VICTOR2VTM Multilabel Counter. The results were visualized by plotting the ratio between the emitted light at 665 and 615 nm. […]

[2] = biological target: T2, FXR ligand binding domain (Homo sapiens, UniProt Q96RI1); experiment: Mammalian One Hybrid (M1H) assay, Gal4 promoter driven transactivation in HEK293 cells; type: cell-based; conditions: Gal4-FXR-LBD luciferase reporter, 16 h
T2 construct: expressed in transfected cells; host or cells: HEK293 cells, transiently transfected with pCMV-BD-FXR-LBD, pFR-Luc and pRL-CMV
T2 sequence (Q96RI1 187-472 isoform Q96RI1-2): T1 sequence (Q96RI1 187-472 isoform Q96RI1-2)
Experimental: Mammalian One Hybrid (M1H) Assay
Determination of a ligand mediated Gal4 promoter driven transactivation to quantify ligand binding mediated activation of FXR was performed as follows: The cDNA part encoding the FXR ligand binding domain was cloned into vector pCMV-BD (Stratagene) as a fusion to the yeast GAL4 DNA binding domain under the control of the CMV promoter. The amino acid boundaries of the ligand binding domain were amino acids 187-472 of Database entry NM_005123 (RefSeq). The plasmid pFR-Luc (Stratagene) was used as the reporter plasmid, containing a synthetic promoter with five tandem repeats of the yeast GAL4 binding sites, driving the expression of the Photinus pyralis (American firefly) luciferase gene as the reporter gene. In order to improve experimental accuracy the plasmid pRL-CMV (Promega) was cotransfected. pRL-CMV contains the constitutive CMV promoter, controlling the expression of the Renilla reniformis luciferase. All Gal4 reporter gene assays were done in HEK293 cells (obtained from DSMZ, Braunschweig, Germany) grown in MEM with L-Glutamine and Earle's BSS supplemented with 10% fetal bovine serum, 0.1 mM nonessential amino acids, 1 mM sodium pyruvate, and 100 units Penicilin/[…] per mL at 37° C. in 5% CO2. Medium and supplements were obtained from Invitrogen. For the assay, […] cells were plated per well in 96 well plates in 100 μL per well MEM without Phenol Red and L-Glutamine and with Earle's BSS supplemented with 10% charcoal/dextran treated FBS (HyClone, South Logan, Utah), 0.1 mM nonessential amino acids, 2 mM glutamine, 1 mM sodium pyruvate, and 100 units Penicilin/[…] per mL, incubated at 37° C. in 5% CO2. The following day the cells were >90% confluence. Medium was removed and cells were transiently transfected using 20 μL per well of a OptiMEM—polyethylene-imine-based transfection-reagent (OptiMEM, Invitrogen; Polyethyleneimine, Aldrich Cat No. 40,827-7) including the three plasmids described above. MEM with the same composition as used for plating cells was added 2-4 h after addition of transfection mixture. Then compound stocks, prediluted in MEM were added (final vehicle concentration not exceeding 0.1%). Cells were incubated for additional 16 h before firefly and renilla luciferase activities were measured sequentially in the same cell extract using a Dual-Light-Luciferase-Assay system (Dyer et al., Anal. Biochem. 2000, 282, 158-161). All experiments were done in triplicates.

O=C(O)c1ccc2nc([C@]3(O)CC[C@@H](OCc4c(-c5ccccc5C(F)F)noc4C4CC4)CC3)sc2c1 [Example 11-15, 2-((1s,4s)-4-((5-Cyclopropyl-3-(2-(difluoromethyl)phenyl)isoxazol-4-yl)methoxy)-1-hydroxycyclohexyl)benzo[d]thiazole-6-carboxylic acid]
pEC50 [1]: 5.82 | pEC50 [2]: 5.66

O=C(O)c1ccc2nc([C@]3(O)CC[C@@H](OCc4c(-c5c(Cl)cncc5Cl)noc4C4CC4)CC3)sc2c1 [Example 11-16, 2-((1s,4s)-4-((5-Cyclopropyl-3-(3,5-dichloropyridin-4-yl)isoxazol-4-yl)methoxy)-1-hydroxycyclohexyl)benzo[d]thiazole-6-carboxylic acid]
pEC50 [1]: 7.08 | pEC50 [2]: 6.24

O=C(O)c1ccc2nc([C@]3(O)CC[C@@H](OCc4c(C5CC5)cnn4-c4ccccc4OC(F)F)CC3)sc2c1 [Example 11-17, 2-((1s,4s)-4-((4-Cyclopropyl-1-(2-(difluoromethoxy)phenyl)-1H-pyrazol-5-yl)methoxy)-1-hydroxycyclohexyl)benzo[d]thiazole-6-carboxylic acid]
pEC50 [1]: 6.01 | pEC50 [2]: 5.74

O=C(O)c1ccc2nc([C@]3(O)CC[C@@H](OCc4c(-c5c(C(F)F)cccc5C(F)F)noc4C4CC4)CC3)sc2c1 [Example 11-18, 2-((1s,4s)-4-((3-(2,6-Bis(difluoromethyl)phenyl)-5-cyclopropylisoxazol-4-yl)methoxy)-1-hydroxycyclohexyl)benzo[d]thiazole-6-carboxylic acid]
pEC50 [1]: 6.46 | pEC50 [2]: 6.77

O=C(O)c1cc2sc([C@]3(O)CC[C@@H](OCc4c(-c5ccccc5OC(F)F)noc4C4CC4)CC3)nc2cc1F [Example 11-19, 2-((1s,4s)-4-((5-Cyclopropyl-3-(2-(difluoromethoxy)phenyl)isoxazol-4-yl)methoxy)-1-hydroxycyclohexyl)-5-fluorobenzo[d]thiazole-6-carboxylic acid]
pEC50 [1]: 6.24 | pEC50 [2]: 5.60

O=C(O)c1cc2sc([C@]3(O)CC[C@@H](OCc4c(-c5c(Cl)cccc5Cl)noc4C4CC4)CC3)nc2cc1F [Example 11-20, 2-((1s,4s)-4-((5-Cyclopropyl-3-(2,6-dichlorophenyl)isoxazol-4-yl)methoxy)-1-hydroxycyclohexyl)-5-fluorobenzo[d]thiazole-6-carboxylic acid]
pEC50 [1]: 6.74 | pEC50 [2]: 5.82

O=C(O)c1cc(F)c2nc([C@]3(O)C[C@@H](OCc4c(-c5c(Cl)cccc5Cl)noc4C4CC4)C3)sc2c1 [Example 11-21, 2-((1s,3s)-3-((5-Cyclopropyl-3-(2,6-dichlorophenyl)isoxazol-4-yl)methoxy)-1-hydroxycyclobutyl)-4-fluorobenzo[d]thiazole-6-carboxylic acid]
pEC50 [1]: 7.64 | pEC50 [2]: 6.51

O=C(O)c1ccc2nc([C@]3(O)[C@@H]4CC[C@H]3C[C@H](OCc3c(-c5c(Cl)cccc5Cl)noc3C3CC3)C4)sc2c1 [Example 11-22, 2-((1R,3s,5S,8r)-3-((5-cyclopropyl-3-(2,6-dichlorophenyl)isoxazol-4-yl)methoxy)-8-hydroxybicyclo[3.2.1]octan-8-yl)benzo[d]thiazole-6-carboxylic acid]
pEC50 [1]: 8.43 | pEC50 [2]: 8.80

O=C(O)c1ccc2nc([C@]3(O)[C@@H]4CC[C@H]3C[C@@H](OCc3c(-c5c(Cl)cccc5Cl)noc3C3CC3)C4)sc2c1 [Example 11-23, 2-((1R,3r,5S,8r)-3-((5-Cyclopropyl-3-(2,6-dichlorophenyl)isoxazol-4-yl)methoxy)-8-hydroxybicyclo[3.2.1]octan-8-yl)benzo[d]thiazole-6-carboxylic acid]
pEC50 [1]: 7.39 | pEC50 [2]: 7.74

O=C(O)c1ccc([C@]2(O)[C@@H]3CC[C@H]2C[C@H](OCc2c(-c4c(Cl)cccc4Cl)noc2C2CC2)C3)c(F)c1 [Example 11-24]
pEC50 [1]: 8.11 | pEC50 [2]: 7.85

O=C(O)c1cccc([C@]2(O)[C@@H]3CC[C@H]2C[C@H](OCc2c(-c4c(Cl)cccc4Cl)noc2C2CC2)C3)c1 [Example 11-25, 3-((1R,3s,5S,8r)-3-((5-Cyclopropyl-3-(2,6-dichlorophenyl)isoxazol-4-yl)methoxy)-8-hydroxybicyclo[3.2.1]octan-8-yl)benzoic acid]
pEC50 [1]: 7.10 | pEC50 [2]: 6.37

O=C(O)c1ccnc([C@]2(O)[C@@H]3CC[C@H]2C[C@H](OCc2c(-c4c(Cl)cccc4Cl)noc2C2CC2)C3)c1 [Example 11-26]
pEC50 [1]: 7.28 | pEC50 [2]: 5.74

O=C(O)c1cc(F)c2nc([C@]3(O)[C@@H]4CC[C@H]3C[C@H](OCc3c(-c5c(Cl)cccc5Cl)noc3C3CC3)C4)sc2c1 [Example 11-27, 2-((1R,3s,5S,8r)-3-((5-cyclopropyl-3-(2,6-dichlorophenyl)isoxazol-4-yl)methoxy)-8-hydroxybicyclo[3.2.1]octan-8-yl)-4-fluorobenzo[d]thiazole-6-carboxylic acid]
pEC50 [1]: 8.42 | pEC50 [2]: 9.00
